In patent publication US20060040298A1, “Rhesus monkey NURR1 nuclear receptor” (priority 2004, published 2006):

Key:
Assay type in all cases: cell-based, Macaca mulatta (rhesus monkey)
[1] = biological target: T1, GR/NURR1 chimera receptor (NURR1 LBD) (UniProt P06536+P43354); assay: Relative transactivation of GR/NURR1 chimera receptor versus GR/PPARα chimeric receptor, MMTV-luciferase reporter; conditions: test analytes at 0, 1, 10, and 30 μM in DMSO; FIG. 7
T1 construct: expressed in transfected cells
Protocol: The relative transactivation of GR/NURR1 chimera receptor in response to a panel of test analytes was determined.
To further verify the selective NURR1 LBD-compound interactions, the same compounds were added to cells that had been co-transfected with the MMTV-luciferase reporter gene expression cassette and a gene expression cassette comprising DNA encoding either the chimeric receptor GR/NURR1 or a chimeric GR/PPARα receptor under conditions similar to those in Example 5.
Expression vector 3GR/PPARα contained the chimeric GR/PPARα receptor in which DNA encoding the DNA binding domain of GR was fused to the ligand binding domain of mouse PPARα was inserted into plasmid pSG5 (See Boie et al., J. Biol. Chem. 268: 5530-[…] (1993)).
Then, aliquots of the transfected cells were treated with test analytes at 0, 1, 10, and 30 μM concentrations in DMSO. The test analytes included Bicalutamide, Lovastatin, ZOCOR, and various SARM compounds. The results are shown in FIG. 7 and are expressed as a relative activity in which the activity at each concentration that was obtained with the extracts from the cells cotransfected with GR/NURR1 was divided by the corresponding activity that was obtained from extracts from the cells cotransfected with GR/PPARα. Other chimeric receptors other than GR/PPARα can be used. […]

[2] = biological target: T2, GR/NURR1 chimera (rat GR DBD fused to rhNURR1 LBD) (UniProt P06536+P43354); assay: GR/NURR1 chimera transactivation of the MMTV-LUC reporter in transfected CHO cells; conditions: FIG. 6; for NURR1 agonist activity: CHO cells co-transfected with GR/NURR1 chimera and reporter gene expression cassette; for luciferase expression from the MMTV-LUC reporter plasmid: CHO cells, compared to compound F and TOFA
T2 construct: expressed in transfected cells; host or cells: CHO cells, transient transfection of the pSG5 plasmid
Text: A nucleic acid encoding a chimeric nuclear receptor comprising the rat glucocorticoid receptor (GR) DBD fused to the rhNURR1 LBD was constructed and the nucleic acid inserted downstream of the SV40 promoter in plasmid pSG5. The rat GR DBD consists of about amino acid 1 to about amino acid 505 and the rhNURR1 LBD consists of the amino acid sequence beginning from about amino acid 329 to about amino acid 598 (See FIG. 2). A nucleic acid encoding the rat GR DBD, which consisted of nucleotides 1 to 1583 (and which included the proximal 5′ untranslated sequences), was ligated to the nucleic encoding the rhNURR1 (nucleotides 329 to 1794). At the junction in the fusion protein between amino acid 505 of the rat GR DBD and amino acid 329 of the rhNURR1 LDB there are three extra amino acids, Alanine, Arginine, and Glutamic acid, which are encoded by the oligonucleotide 5′-GCTCGAGAA-3′ (SEQ ID NO:11) which includes an XhoI restriction enyme site.
The chimeric nuclear receptor was constructed by ligating the rat GRDBD encoding nucleotide fragment (nucleotides 1 to 1583) to the rhNURR1 LBD encoding nucleotide fragment (nucleotides 329 to 1794) and then inserting the ligated GRDBD/rhNURR1 LBD nucleotide fragments into the pSG5 plasmid expression vector between the EcoRI and BamHI sites.
A reporter gene expression cassette comprising the MMTV(2xGRE) promoter was constructed as described in Schmidt et al., Mol. Endocrinol. 6(10):1634-41 (1992).
A routine transient transfection assay for identifying agonists of rhNURR1 activity is described. While the transfection uses the FuGENE6 method of Roche Applied Science, Indianapolis, Ind., other transfection methods can be used.
In general, the method consists of plating about 0.8 to 1×10^4 transfected COS-1 or CHO cells per well of 96-well tissue culture plates which are UV and visible light transparent. The media that the cells are plated in is exponential growth medium which consists of phenol red-free DMEM containing 10% fetal bovine serum and 1× penicillin/streptomycin. Incubation conditions are 37° C. and 5% CO2. The transfection is done in batch mode.
For a transfection, the cells are trypsinized and resuspended to about 8×10^4 cells/mL in fresh medium. FuGENE6 is mixed with serum-free medium (for example, OPTIMEM, Invitrogen, Carlsbad, Calif.) at a ratio of 2 to 3. About 0.625 ng of DNA encoding the chimeric receptor of Example 2 and 0.625 ng DNA comprising the MMTV promoter operably linked to the luciferase gene (MMTV-LUC) are added to the FuGENE6 in serum-free medium and the mixture incubated at room temperature for about 20 minutes. The mixture is then added to one mL of the cell suspension and 100 μL aliquots plated to the wells of a 96-well tissue culture plate. Thus, a total ten wells contain cells, each containing about 8,000 cells. About 16 to 24 hours after transfection, for each well, about 1 uL of an analyte in a vehicle such as DMSO is added to the well. At least one well is reserved as a control and receives the vehicle alone. After 24 hours exposure to the analytes, the cells are assayed for luciferase activity. The cells are lysed by a Promega cell culture lysis buffer for approximately 30 min and then the luciferase activity in the extracts is assayed in the 96-well format liminometer (MICROBETA JET 1450, Perkin Elmer, Boston, Mass.). Results are calculated as fold induction of compound treated cells over control treated cells.
The CHO cells were transfected as in Example 3. […]

[3] = biological target: T1, GR/NURR1 chimera receptor (NURR1 LBD); assay: Relative transactivation of GR/NURR1 chimera receptor versus GR/LXRβ chimeric receptor, MMTV-luciferase reporter; conditions: test analytes at 0, 1, 10, and 30 μM in DMSO; 48 hours post-transfection; FIG. 8
Protocol: Relative transactivation of GR/NURR1 chimera receptor in response to a panel of test analytes was determined.
An MMTV-luciferase reporter gene expression cassette was cotransfected with a gene expression cassette comprising DNA encoding either the chimeric receptor GR/NURR1 or a chimeric receptor comprising GR/LXRβ under transfection conditions similar to those in Example 3.
Expression vector GR/LXRβ was prepared in a similar manner to the GR/PPARα chimeric receptor in Example 5. […]
The next day, the transfected cells were washed and then refed with the appropriate medium containing 5% activated charcoal-stripped serum. […] The results are shown in FIG. 8 and are expressed as a relative activity in which the activity at each concentration that was obtained with cells transfected with the GR/NURR1 was divided by the corresponding activity that was obtained from cells cotransfected with the GR/LXRβ. […]

T2 sequence (P06536+P43354 fused, change not shown): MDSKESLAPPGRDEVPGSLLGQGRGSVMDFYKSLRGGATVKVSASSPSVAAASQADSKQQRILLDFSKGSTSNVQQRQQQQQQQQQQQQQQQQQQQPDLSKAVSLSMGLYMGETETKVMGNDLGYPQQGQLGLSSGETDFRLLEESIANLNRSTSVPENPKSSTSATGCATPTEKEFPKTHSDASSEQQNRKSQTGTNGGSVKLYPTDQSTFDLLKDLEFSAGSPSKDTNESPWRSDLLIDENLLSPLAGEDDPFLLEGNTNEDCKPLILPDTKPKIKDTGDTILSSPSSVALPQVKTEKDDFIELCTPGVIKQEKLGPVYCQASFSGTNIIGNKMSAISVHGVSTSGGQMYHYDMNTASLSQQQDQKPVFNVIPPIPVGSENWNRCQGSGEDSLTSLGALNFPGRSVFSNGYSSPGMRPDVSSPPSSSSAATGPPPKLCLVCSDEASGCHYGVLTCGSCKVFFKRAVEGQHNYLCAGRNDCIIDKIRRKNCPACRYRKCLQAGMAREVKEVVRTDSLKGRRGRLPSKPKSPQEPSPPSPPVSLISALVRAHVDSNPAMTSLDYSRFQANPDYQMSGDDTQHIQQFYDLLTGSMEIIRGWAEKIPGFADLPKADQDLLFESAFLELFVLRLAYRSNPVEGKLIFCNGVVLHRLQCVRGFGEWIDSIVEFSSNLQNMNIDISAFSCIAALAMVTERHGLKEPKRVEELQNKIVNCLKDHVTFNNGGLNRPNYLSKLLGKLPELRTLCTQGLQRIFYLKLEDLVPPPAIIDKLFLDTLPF
T1 sequence (P06536+P43354 fused, change not shown): as above

| relative activity (GR/NURR1 activity divided by GR/PPARα activity) [1] | NURR1 agonist activity [2] | luciferase expression from the MMTV-LUC reporter plasmid [2] | relative activity (GR/NURR1 activity divided by GR/LXRβ activity) [3] | SMILES |
| --- | --- | --- | --- | --- |
| increase in activity | NURR1 agonists | increase in luciferase expression | increase in activity | CC[C@H](C)C(=O)O[C@H]1C[C@@H](C)C=C2C=C[C@H](C)[C@H](CC[C@@H]3C[C@@H](O)CC(=O)O3)[C@H]21 [Lovastatin] |
| – | NURR1 agonists | – | – | CCCCCCCCCCCCCCOc1ccc(C(=O)O)o1 [TOFA, 5-(tetradecyloxy)-2-furoic acid] |
| increase in activity | NURR1 agonists | increase in luciferase expression | increase in activity | CCC(C)(C)C(=O)O[C@H]1C[C@@H](C)C=C2C=C[C@H](C)[C@H](CC[C@@H]3C[C@@H](O)CC(=O)O3)[C@H]21 [ZOCOR] |
